In ChEMBL document CHEMBL1201862, “PubChem BioAssay data set” (2004):
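Cultured in 96-well plates, cells were exposed to test compound for 48 hours across five concentrations. The concentration for 50% growth inhibition is given as GI50.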 The source made the active and inactive calls. Cut-off read from the data, not from the text of the source: active = GI50 up to about 1.1 µM and inactive = higher.

How the values were obtained:
Experiment in all cases: DTP human tumour cell line panel, 48 h
NCI-H226 = system: NCI-H226
SNB-19 = system: SNB-19
SW-620 = system: SW-620
NCI-H522 = system: NCI-H522
OVCAR-4 = system: OVCAR-4
HCC 2998 = system: HCC 2998
HOP-92 = system: HOP-92
HL-60 = system: HL-60
SK-MEL-5 = system: SK-MEL-5
NCI-H23 = system: NCI-H23
LXFL 529 = system: LXFL 529
RXF 631 = system: RXF 631
SF-539 = system: SF-539
RPMI-8226 = system: RPMI-8226
KM-20L2 = system: KM-20L2
LOX IMVI = system: LOX IMVI
TK-10 = system: TK-10
Malme-3M = system: Malme-3M
OVCAR-8 = system: OVCAR-8
SK-MEL-2 = system: SK-MEL-2
A549 = system: A549
UACC-62 = system: UACC-62
SK-MEL-28 = system: SK-MEL-28
OVCAR-5 = system: OVCAR-5
SNB-78 = system: SNB-78
A498 = system: A498
HCT-15 = system: HCT-15
SR = system: SR
DMS-273 = system: DMS-273
SK-OV-3 = system: SK-OV-3
EKVX = system: EKVX
SN12C = system: SN12C
HOP-62 = system: HOP-62
MOLT-4 = system: MOLT-4
HT-29 = system: HT-29
UO-31 = system: UO-31
HCT-116 = system: HCT-116
KM12 = system: KM12
OVCAR-3 = system: OVCAR-3
DLD-1 = system: DLD-1
M19-MEL = system: M19-MEL
SF-295 = system: SF-295
U-251 = system: U-251
CAKI-1 = system: CAKI-1
K562 = system: K562
HOP-18 = system: HOP-18
786-0 = system: 786-0
SNB-75 = system: SNB-75
DMS-114 = system: DMS-114
CCRF-CEM = system: CCRF-CEM
IGROV-1 = system: IGROV-1
SF-268 = system: SF-268
NCI-H460 = system: NCI-H460
ACHN = system: ACHN
XF498 = system: XF498
M14 = system: M14
COLO 205 = system: COLO 205
UACC-257 = system: UACC-257
RXF 393 = system: RXF 393

## CC(C)N(C(=O)C12C3C4C1C1C4(C#N)C3C12C(=O)O)C(C)C (stereo not given)
NCI-H226
  GI50: > 100 µM (inactive)
SNB-19
  GI50: > 100 µM (inactive)
SW-620
  GI50: > 60.3 µM (inactive)
NCI-H522
  GI50: > 69.3 µM (inactive)
OVCAR-4
  GI50: > 100 µM (inactive)
HCC 2998
  GI50: > 100 µM (inactive)
HOP-92
  GI50: > 100 µM (inactive)
HL-60
  GI50: > 45.5 µM (inactive)
SK-MEL-5
  GI50: > 100 µM (inactive)
NCI-H23
  GI50: > 100 µM (inactive)
LXFL 529
  GI50: > 100 µM (inactive)
RXF 631
  GI50: > 100 µM (inactive)
SF-539
  GI50: > 100 µM (inactive)
RPMI-8226
  GI50: > 43.1 µM (inactive)
KM-20L2
  GI50: > 100 µM (inactive)
LOX IMVI
  GI50: > 93.8 µM (inactive)
TK-10
  GI50: > 100 µM (inactive)
Malme-3M
  GI50: > 100 µM (inactive)
OVCAR-8
  GI50: > 86.9 µM (inactive)
SK-MEL-2
  GI50: > 100 µM (inactive)
A549
  GI50: 97.9 µM (inactive)
UACC-62
  GI50: > 100 µM (inactive)
SK-MEL-28
  GI50: > 100 µM (inactive)
OVCAR-5
  GI50: > 100 µM (inactive)
SNB-78
  GI50: > 100 µM (inactive)
A498
  GI50: > 100 µM (inactive)
HCT-15
  GI50: > 44.7 µM
SR
  GI50: 16.8 µM (inactive)
DMS-273
  GI50: > 100 µM (inactive)
SK-OV-3
  GI50: > 100 µM (inactive)
EKVX
  GI50: > 100 µM (inactive)
SN12C
  GI50: > 100 µM (inactive)
HOP-62
  GI50: > 100 µM (inactive)
MOLT-4
  GI50: > 100 µM (inactive)
HT-29
  GI50: > 100 µM (inactive)
UO-31
  GI50: > 100 µM (inactive)
HCT-116
  GI50: > 52.8 µM (inactive)
KM12
  GI50: > 100 µM (inactive)
OVCAR-3
  GI50: > 100 µM (inactive)
DLD-1
  GI50: > 100 µM (inactive)
M19-MEL
  GI50: > 100 µM (inactive)
SF-295
  GI50: > 100 µM (inactive)
U-251
  GI50: > 100 µM (inactive)
CAKI-1
  GI50: > 100 µM (inactive)
K562
  GI50: > 69.8 µM (inactive)
HOP-18
  GI50: > 100 µM (inactive)
786-0
  GI50: > 100 µM (inactive)
SNB-75
  GI50: > 100 µM (inactive)
DMS-114
  GI50: > 100 µM (inactive)
CCRF-CEM
  GI50: > 48.4 µM (inactive)
IGROV-1
  GI50: > 100 µM (inactive)
SF-268
  GI50: > 100 µM (inactive)
NCI-H460
  GI50: > 67.3 µM (inactive)
ACHN
  GI50: > 100 µM (inactive)
XF498
  GI50: > 100 µM (inactive)
M14
  GI50: > 100 µM (inactive)
COLO 205
  GI50: > 100 µM (inactive)
UACC-257
  GI50: > 100 µM (inactive)

## CN1CCN(C)C12C=CC=CC21CC1
NCI-H226
  GI50: > 100 µM (inactive)
SNB-19
  GI50: > 100 µM (inactive)
SW-620
  GI50: > 100 µM (inactive)
NCI-H522
  GI50: > 100 µM (inactive)
OVCAR-4
  GI50: > 100 µM (inactive)
HCC 2998
  GI50: > 100 µM (inactive)
HOP-92
  GI50: 58.9 µM (inactive)
HL-60
  GI50: > 100 µM (inactive)
SK-MEL-5
  GI50: > 100 µM (inactive)
NCI-H23
  GI50: > 100 µM (inactive)
RXF 631
  GI50: > 100 µM (inactive)
SF-539
  GI50: > 100 µM (inactive)
RPMI-8226
  GI50: > 100 µM (inactive)
KM-20L2
  GI50: > 100 µM (inactive)
LOX IMVI
  GI50: > 100 µM (inactive)
TK-10
  GI50: > 100 µM (inactive)
Malme-3M
  GI50: > 100 µM (inactive)
OVCAR-8
  GI50: > 100 µM (inactive)
SK-MEL-2
  GI50: > 100 µM (inactive)
A549
  GI50: > 100 µM (inactive)
UACC-62
  GI50: > 100 µM (inactive)
OVCAR-5
  GI50: > 100 µM (inactive)
SNB-78
  GI50: > 100 µM (inactive)
A498
  GI50: > 100 µM (inactive)
HCT-15
  GI50: > 100 µM
SR
  GI50: > 100 µM (inactive)
DMS-273
  GI50: > 100 µM (inactive)
SK-OV-3
  GI50: > 100 µM (inactive)
EKVX
  GI50: > 100 µM (inactive)
SN12C
  GI50: > 100 µM (inactive)
HOP-62
  GI50: > 100 µM (inactive)
MOLT-4
  GI50: > 100 µM (inactive)
HT-29
  GI50: > 100 µM (inactive)
UO-31
  GI50: > 100 µM (inactive)
HCT-116
  GI50: > 100 µM (inactive)
KM12
  GI50: > 100 µM (inactive)
OVCAR-3
  GI50: > 100 µM (inactive)
DLD-1
  GI50: > 100 µM (inactive)
M19-MEL
  GI50: > 100 µM (inactive)
SF-295
  GI50: > 100 µM (inactive)
U-251
  GI50: > 100 µM (inactive)
CAKI-1
  GI50: > 100 µM (inactive)
K562
  GI50: > 100 µM (inactive)
HOP-18
  GI50: > 100 µM (inactive)
786-0
  GI50: > 100 µM (inactive)
SNB-75
  GI50: > 100 µM (inactive)
DMS-114
  GI50: > 100 µM (inactive)
CCRF-CEM
  GI50: > 100 µM (inactive)
IGROV-1
  GI50: > 100 µM (inactive)
SF-268
  GI50: > 100 µM (inactive)
NCI-H460
  GI50: > 100 µM (inactive)
RXF 393
  GI50: > 100 µM (inactive)
ACHN
  GI50: > 100 µM (inactive)
XF498
  GI50: > 100 µM (inactive)
M14
  GI50: > 100 µM (inactive)
COLO 205
  GI50: > 100 µM (inactive)
UACC-257
  GI50: > 100 µM (inactive)
